Test: gradient 5% acetonitrile 3 min, to 50% in 2 min, to 85% in 15 min, held 3 min, 100 µL/min
Details: column: Zorbax Extend-C18 2.1 x 50 mm; eluents: water / acetonitrile, 0.1% formic acid
In short: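 Retention times come from adduct peaks that were picked computationally and then checked by hand. The standards, pure and pooled in mixtures of ~100 molecules, were run on a Zorbax Extend-C18 column (2.1 × 50 mm, 1.8 μm) at 100 μL/min with water and acetonitrile, each with 0.1% formic acid. Detection was by quadrupole time-of-flight mass spectrometry in positive and negative ionization mode, with a dead volume of 40 μL and a dwell volume of 900 μL.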

RP-LC retention time | SMILES
654 s | COc1ccc(CCC(=O)c2c(O)cc(O[C@@H]3O[C@H](CO)[C@@H](O)[C@H](O)[C@H]3O[C@@H]3O[C@@H](C)[C@H](O)[C@@H](O)[C@H]3O)cc2O)cc1O
994 s | COc1cccc(Cc2nc(-c3cn(-c4ccc(F)cc4)nn3)no2)c1
668 s | CC(C)(C)CCN1CCCC(COc2ccccc2C(=O)N2CCCC2)C1 (stereo not drawn)
612 s | O=C(CCC(=O)N1CCN(c2nc3cccnc3s2)CC1)N1CCCC1
754 s | COc1ccc(NC(=O)CSc2nnc3c4sc(N5CCCC5)nc4ncn23)cc1
686 s | O=C(Cc1ccc(Cl)cc1)N1CC(Cc2nncn2CC2CC2)C1
828 s | O=C(Nc1ccc(C2(C(=O)NCC3CCCO3)CC2)cc1)c1ccc(Br)cc1 (stereo not drawn)
854 s | CCc1ccccc1NC(=O)Cn1nc2cc(C)nc(-c3ccccc3)n2c1=O
736 s | CCc1cc(-c2csc(S(=O)(=O)NCCCN3CCN(c4ccccc4)CC3)c2)on1
663 s | Cn1c(C(=O)NCc2ccc(F)cc2)cc2sccc21
587 s | COc1ccc(N2CC(NC(=O)NN3CCOCC3)CC2=O)cc1 (stereo not drawn)
946 s | CCn1cc(-c2nc(C)c(C(=O)NCc3ccccn3)s2)c2cccnc21
786 s | Cc1cc2c(cc1S(=O)(=O)N1CCC(C(=O)NCc3ccc(Cl)cc3)CC1)OCC(=O)N2
809 s | COC(=O)c1c(C)[nH]c(C(=O)N2CCCC(C(=O)NCc3ccc(Cl)cc3)C2)c1C (stereo not drawn)
827 s | Cc1ccc(CNC(=O)c2ncn3c2C(=O)N(C2CC2)C(C)(C(=O)NCc2cccc(C)c2)C3)cc1 (stereo not drawn)
663 s | Cc1cc(C(=O)NCc2ccco2)c2c(=O)n(C)c(=O)n(C)c2n1
995 s | COc1ccc(N2C=C(C#N)S(=O)(=O)c3ccc(Cl)cc32)c(OC)c1
767 s | COc1ccc(N2CCCS2(=O)=O)cc1NC(=O)c1ccc(Br)o1
917 s | O=C(NCCC1=CCCCC1)C1CCN(Cc2cc3ccccc3n2Cc2ccc(Cl)cc2)CC1
864 s | CCc1ccccc1S(=O)(=O)N1CCC(N2CCN(Cc3ccccc3)C(=O)C2=O)CC1
1240 s | CC(C)Cc1csc(-c2csc(S(=O)(=O)NCc3ccc(Cl)cc3)c2)n1
990 s | O=C(Nc1cccc2c1CCCC2)C1CCN(S(=O)(=O)c2cccc3nonc23)CC1

RP-LC retention time | SMILES
1200 s | CC1=NS(=O)(=O)N(Cc2ccccc2)C=C1C(=O)OCc1ccc(Br)cc1
912 s | Cc1ccccc1-n1ccn(Cc2nc(-c3ccc(Cl)cc3)no2)c(=O)c1=O
1140 s | C=CCn1c(=O)c2ccccc2n(Cc2nc(-c3ccc(C)c(C)c3)no2)c1=O
625 s | CC(=O)Nc1cccc(NC(=O)C2CC(=O)N(c3n[nH]c4ccccc34)C2)c1 (stereo not drawn)
850 s | c1ccc(-c2nnc(-c3ccccn3)s2)nc1
652 s | CC(=O)N1C[C@@H](C(=O)NCCc2cccs2)[C@H](c2nc(C)no2)C1
838 s | CC(=O)N1CCc2ccccc2C1C(=O)NCc1cccc(C(F)(F)F)c1 (stereo not drawn)
726 s | CC(C)CC(=O)NCC12CCCC=C1N(C)C(=O)CC2 (stereo not drawn)
997 s | COc1ccc(-c2cc(C(F)F)nn2-c2ccc(S(N)(=O)=O)cc2)cc1F
589 s | COCC1(O)CCOC2(CCN(Cc3cccc(F)c3F)CC2)C1 (stereo not drawn)
1380 s | CCOC(=O)c1cnc(N2CCN(c3ccc(Cl)cc3)CC2)nc1C
790 s | Cc1nc2cc(N3CCC(C(=O)Nc4ccc(Cl)cc4)CC3)cnc2nc1C
1170 s | Cc1ccc(NC(=O)C2CCCN(S(=O)(=O)c3cc(-c4noc(C5CCC5)n4)cs3)C2)cc1 (stereo not drawn)
902 s | COCc1noc(C2CCCCN2C(=O)CCc2ccccc2OC)n1 (stereo not drawn)
819 s | COc1ccc(NC(=O)C2CCCN(S(=O)(=O)c3c[nH]c(C(=O)N4CCCC4)c3)C2)cc1Cl (stereo not drawn)
607 s | Cc1ccc2c(=O)c3c([nH]c2c1C)CCN(CC(=O)Nc1cccc(C#N)c1)C3
726 s | Cc1c(C(=O)O)nnn1-c1ccc(F)c(Cl)c1
1300 s | CCOc1ccc(-c2cc3c(=O)n(Cc4nc(-c5ccc(CC)cc5)no4)ncn3n2)cc1
867 s | COc1cc(NC(=O)CN2C(=O)C(C)(C)c3cc(Cl)ccc32)cc(OC)c1OC
774 s | CN(C)c1cc(-n2cnc(C(=O)Nc3ccc4c(c3)OCO4)c2)ncn1
1060 s | CCOc1ccc(NC(=O)Nc2nccn(-c3cc(Cl)ccc3C)c2=O)cc1
882 s | CCOCCCNC(=O)C1c2ccccc2C(=O)N(C2CCCC2)C1c1cccs1 (stereo not drawn)

RP-LC retention time | SMILES
651 s | COc1ccccc1C(CNC(=O)c1cc(=O)c2cc(Br)ccc2o1)N(C)C (stereo not drawn)
716 s | O=C(Cc1ccccc1Cl)N1CCCN(c2nc3cccnc3o2)CC1
613 s | Cc1noc(C)c1CN1CCC(NC(=O)Cc2ccccc2Cl)C1 (stereo not drawn)
515 s | Cc1nn(C)c(C)c1CNC(=O)C1CCN(c2nnc3ccccn23)CC1
938 s | CC(=O)COc1cc(O)c2c(=O)cc(-c3ccccc3)oc2c1
683 s | CC(C)C(=O)N1C[C@@H](F)C[C@H]1C(=O)N1CCc2ccccc2C1
761 s | Cc1ccc(-c2nc(-c3ccc4c(c3)oc(=O)n4C(C)C)no2)c(C)c1
685 s | CCSc1nnc(NC(=O)c2cc(=O)c(OCc3cccc(OC)c3)cn2C)s1
835 s | O=C(NCC(=O)N1CCCc2ccccc21)c1ccc(Cl)cc1
711 s | Cc1nc(-c2cc3ccccc3nc2N2CCN(c3ccccc3F)CC2)no1
854 s | CCc1cc(=O)n(CC(=O)Nc2cc(C)ccc2OC)c(N2CCOCC2)n1
658 s | COC(=O)c1cccc(NC(=O)C2CCN(c3cc(N4CCCC4)ncn3)CC2)c1
846 s | CSc1cccc(NC(=O)C(=O)NCc2cccs2)c1
779 s | O=C(NC1CC1)C1(c2ccc(F)cc2)CC1
784 s | Cc1ccc(C)c2sc(N(C)CC(=O)NCCn3nc(-c4ccco4)ccc3=O)nc12
585 s | CCN1CCC2(CC1)CN(Cc1cccc(Cl)c1)Cc1ccccc1O2
875 s | O=C1Cc2ccccc2N1c1c(Cl)cccc1Cl
624 s | COC[C@@H]1CN(S(=O)(=O)c2ccccc2)C[C@H]1c1ccncc1
523 s | Cc1nc([C@@H]2CN(C(=O)CCc3c(C)n[nH]c3C)C[C@H]2C(N)=O)n[nH]1
596 s | COc1ccc2c(c1)c(CN1CCC(N3C[C@H](OC)[C@@H]3c3cccnc3)CC1)cn2C(C)C
651 s | COCCCNC(=O)C1c2ccccc2CC(=O)N1C(C)C (stereo not drawn)
1310 s | COc1ccc(N2CCN(c3cc(SCC(=O)NC(C)CCc4ccccc4)ncn3)CC2)cc1 (stereo not drawn)

RP-LC retention time | SMILES
733 s | COC(=O)c1cnc2nc(C)ccc2c1Nc1ccc(C)c(Cl)c1
771 s | CCCNC(=O)c1cc2c(s1)N(C)CCC2
972 s | CCc1nn2c(CNS(=O)(=O)Cc3cccc(F)c3)c(-c3ccccc3)nc2s1
990 s | Cc1nn(CC(=O)NCc2ccco2)c(=O)c2c(-n3cccc3)n(-c3ccc(Cl)cc3)nc12
574 s | CCNc1cc(N2CCC(CCC(=O)NCc3ccc(F)cc3)CC2)ncn1
667 s | COC(=O)c1cccc(NC(=O)Nc2c(-c3cccnc3)[nH]c3ccccc23)c1
764 s | Cc1c(Cl)cccc1NC(=O)Cn1ccc2sccc2c1=O
1130 s | C=CCn1c(=O)c2ccccc2n(Cc2nc(-c3ccc(OC(C)C)cc3)no2)c1=O
860 s | CCc1ccccc1N1C(=O)CN(S(=O)(=O)CC)CC1(C)C(=O)NCc1ccccc1 (stereo not drawn)
577 s | Cc1nc(CSc2nnc3ccc(-c4cccnc4)nn23)cs1
1110 s | O=C(Nc1nc(-c2cc([N+](=O)[O-])cs2)cs1)c1coc2ccccc2c1=O
1180 s | O=C(Nc1c(F)c(F)c(F)c(F)c1F)c1cc2sccc2n1Cc1ccc(F)cc1
655 s | CS(=O)(=O)N1CCC(c2nnc(-c3ccco3)s2)CC1
888 s | CCCCCCCCCC(=O)NC(CN1CCOCC1)[C@H](O)c1ccccc1 (stereo partly drawn)
798 s | COc1cccc(C(=O)N2CCCn3nc(-c4cccs4)cc3C2)c1OC
734 s | Cc1ccc(-n2nnnc2CNC(=O)Nc2ccc3c(c2)OCO3)cc1C
585 s | Cc1cc2n(n1)CCC(=O)N2CCCC(=O)N1CCOCC1
744 s | COc1ccc(S(=O)(=O)N2CCc3nn(CC4CC4)c(=O)n3CC2)cc1
682 s | O=C(NCC(c1ccc2c(c1)OCO2)N1CCN(c2ccc(F)cc2)CC1)C1CC1 (stereo not drawn)
719 s | COc1ccc(NC(=O)C2CCc3nc(N4CCCC4)ncc3C2)cc1OC (stereo not drawn)

SMILES | RP-LC retention time
CCN1C[C@]2(COC)CC[C@H](OC)[C@]34C5C[C@@H]6[C@@H](OC)C[C@@]7(OCOC7(C13)[C@@H](O)C24)C5[C@H]6OC (stereo partly drawn) | 614 s
CC(C)CN1Cc2ccccc2-n2ccnc2C12CCN(C(=O)c1ccccn1)CC2 | 631 s

— the METLIN SMRT retention time set (Domingo-Almenara et al. 2019)
